How the values were obtained:
[1] = biological target: T1, Sodium- and chloride-dependent glycine transporter 1 (Homo sapiens, UniProt P48067)
T1 sequence (P48067 whole entry): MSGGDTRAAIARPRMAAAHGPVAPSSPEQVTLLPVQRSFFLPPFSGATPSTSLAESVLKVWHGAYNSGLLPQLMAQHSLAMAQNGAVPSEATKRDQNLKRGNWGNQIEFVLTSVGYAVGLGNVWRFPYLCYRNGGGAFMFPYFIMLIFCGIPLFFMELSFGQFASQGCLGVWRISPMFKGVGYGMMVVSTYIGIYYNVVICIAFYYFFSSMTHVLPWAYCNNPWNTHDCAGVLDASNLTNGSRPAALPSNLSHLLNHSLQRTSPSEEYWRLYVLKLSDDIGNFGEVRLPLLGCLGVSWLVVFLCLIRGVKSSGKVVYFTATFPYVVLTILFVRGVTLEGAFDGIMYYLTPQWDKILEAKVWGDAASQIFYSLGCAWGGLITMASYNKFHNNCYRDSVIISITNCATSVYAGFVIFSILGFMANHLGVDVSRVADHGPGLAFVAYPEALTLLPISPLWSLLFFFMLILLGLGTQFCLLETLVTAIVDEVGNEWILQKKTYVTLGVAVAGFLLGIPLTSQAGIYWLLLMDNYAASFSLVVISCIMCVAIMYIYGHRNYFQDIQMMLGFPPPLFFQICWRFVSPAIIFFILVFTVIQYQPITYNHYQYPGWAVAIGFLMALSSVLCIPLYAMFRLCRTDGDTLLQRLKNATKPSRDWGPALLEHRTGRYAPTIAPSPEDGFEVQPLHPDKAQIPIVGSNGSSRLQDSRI
Description: (§1) Inhibition of [3H]glycine uptake in human GlyT1c expressed in HEK293 cells

[2] = biological target: T1, Sodium- and chloride-dependent glycine transporter 1; settings: hek293
Description: as §1

Rattus norvegicus [3] = assay: AUC (0 to infinity) in rat plasma at 1 mg/kg, iv; format: ADME, organism-based; set-up: time infinity, dose 1 mg/kg, route intravenous; settings: in vivo
[4] = Half life in rat at 1 mg/kg, iv; format: ADME, organism-based; set-up: dose 1 mg/kg, route intravenous; settings: in vivo
Liver microsomes [5] = assay: Intrinsic clearance in rat liver microsome; format: ADME
Cytochrome P450 2D6 = Cytochrome P450 2D6 (Homo sapiens, UniProt P10635); assay: Binding affinity to CYP2D6; format: ADME
Cytochrome P450 2D6, sequence (P10635 whole entry): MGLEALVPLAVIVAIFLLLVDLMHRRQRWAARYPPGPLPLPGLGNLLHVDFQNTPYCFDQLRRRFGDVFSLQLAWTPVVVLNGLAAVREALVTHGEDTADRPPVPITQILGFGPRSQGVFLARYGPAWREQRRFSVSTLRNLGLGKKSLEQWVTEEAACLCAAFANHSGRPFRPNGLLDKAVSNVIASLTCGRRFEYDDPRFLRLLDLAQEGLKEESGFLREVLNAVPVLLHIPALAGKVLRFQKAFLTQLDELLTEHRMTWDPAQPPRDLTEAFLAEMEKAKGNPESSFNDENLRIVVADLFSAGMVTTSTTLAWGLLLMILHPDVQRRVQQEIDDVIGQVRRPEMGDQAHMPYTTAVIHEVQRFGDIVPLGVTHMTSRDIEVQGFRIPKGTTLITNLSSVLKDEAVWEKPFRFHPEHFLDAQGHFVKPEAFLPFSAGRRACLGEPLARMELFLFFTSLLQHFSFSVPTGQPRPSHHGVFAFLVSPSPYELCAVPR

[6] = Half life in rat at 5 mg/kg, sc; format: ADME, organism-based; set-up: dose 5 mg/kg, route subcutaneous; settings: in vivo
[7] = Plasma clearance in rat at 1 mg/kg, iv; format: ADME, organism-based; set-up: dose 1 mg/kg, route intravenous
Rattus norvegicus [8] = assay: AUC (0 to infinity) in rat at 5 mg/kg, sc; format: ADME, organism-based, Plasma; set-up: time infinity, dose 5 mg/kg, route subcutaneous; settings: in vivo
Brain = assay: Drug level in rat brain at 5 mg/kg, sc; format: ADME, organism-based; set-up: dose 5 mg/kg, route subcutaneous; settings: in vivo
[9] = Cmax in rat at 5 mg/kg, sc; format: ADME, organism-based; set-up: dose 5 mg/kg, route subcutaneous; settings: in vivo
Rattus norvegicus [10] = assay: Bioavailability in rat at 5 mg/kg, sc; format: ADME, organism-based; settings: in vivo
Liver microsomes [11] = assay: Intrinsic clearance in human liver microsome; format: ADME
[12] = AUC (0 to infinity) in rat brain at 1 mg/kg, iv; format: ADME, organism-based; set-up: time infinity, dose 1 mg/kg, route intravenous
[13] = Oral bioavailability in rat at 5 mg/kg; format: ADME, organism-based; settings: in vivo

Row | SMILES | IC50 [1] | also measured
1 | CC1CCC(C)N1C[C@@H](O)CNS(=O)(=O)c1cccc2ccccc12 (stereo partly drawn) | 794 nM | 
2 | O=S(=O)(NC[C@H](O)CN1CCCC1)c1cccc2ccccc12 | 3160 nM | 
3 | CC1CCCN1C[C@H](O)CNS(=O)(=O)c1cccc2ccccc12 (stereo partly drawn) | 12600 nM | 
4 | CC1CC(C)N(C[C@@H](O)CNS(=O)(=O)c2ccc3ccccc3c2)C1 (stereo partly drawn) | 3980 nM | 
5 | CC(C)C1CCCCN1C[C@@H](O)CNS(=O)(=O)c1cccc2ccccc12 (stereo in doubt) | 631 nM | 
6 | CC1CCCN1C[C@@H](O)CNS(=O)(=O)c1cccc2ccccc12 (stereo partly drawn) | 1000 nM | 
7 | CC1CCCCN1C[C@@H](O)CNS(=O)(=O)c1cccc2ccccc12 (stereo partly drawn) | 316 nM | 
8 | CCC1CCC(C)N(C[C@@H](O)CNS(=O)(=O)c2cccc3ccccc23)C1 (stereo partly drawn) | 1000 nM | 
9 | CCC1CCCN1C[C@@H](O)CNS(=O)(=O)c1cccc2ccccc12 (single isomer, unassigned; isomer B) | 1580 nM | 
10 | O=S(=O)(NC[C@H](O)CN1CCCC1C1CC1)c1cccc2ccccc12 (single isomer, unassigned; isomer B) | 501 nM | 
11 | CC1CC(C)N(C[C@@H](O)CNS(=O)(=O)c2cc(Cl)sc2Cl)C1 (stereo partly drawn) | 3160 nM | 
12 | CC(C)CC1CCCN1C[C@@H](O)CNS(=O)(=O)c1cccc2ccccc12 (single isomer, unassigned; isomer B) | 2510 nM | 
13 | CC(C)C1CCCN1C[C@@H](O)CNS(=O)(=O)c1cccc2ccccc12 (single isomer, unassigned; isomer A) | 1000 nM | 
14 | CC1CCC(C)N1C[C@H](O)CNS(=O)(=O)c1cccc2ccccc12 (stereo partly drawn) | 7940 nM | 
15 | CC(C)C1CCCCN1C[C@@H](O)CNS(=O)(=O)c1cccc2ccccc12 (single isomer, unassigned; isomer A) | 3980 nM | 
16 | O=S(=O)(NC[C@H](O)CN1CCCC1C1CCCCC1)c1cccc2ccccc12 (single isomer, unassigned; isomer A) |  | Log IC50 [2]: -5.2

Row | SMILES | IC50 [1] | also measured
17 | O=S(=O)(NC[C@H](O)CN1CCCC1C1CC1)c1cccc2ccccc12 (stereo in doubt) | 1580 nM | 
18 | CC(C)CC1CCCN1C[C@@H](O)CNS(=O)(=O)c1cccc2ccccc12 (single isomer, unassigned; isomer A) | 6310 nM | 
19 | CC(C)(C)C1CCCN1C[C@@H](O)CNS(=O)(=O)c1cccc2ccccc12 (single isomer, unassigned; isomer B) | 200 nM | 
20 | Cc1cc(S(=O)(=O)NC[C@H](O)CN2CC(C)CC2C)c(C)cc1Cl (stereo partly drawn) | 3160 nM | 
21 | CCc1cc(Br)ccc1S(=O)(=O)NC[C@H](O)CN1CC(C)CC1C (stereo partly drawn) | 3160 nM | 
22 | CCC1CCCN1C[C@@H](O)CNS(=O)(=O)c1cccc2ccccc12 (single isomer, unassigned; isomer A) | 1260 nM | 
23 | CCCN(C[C@@H](O)CNS(=O)(=O)c1cccc2ccccc12)C(C)CC (stereo partly drawn) | 1260 nM | 
24 | CC[C@H]1CCCCN1C[C@@H](O)CNS(=O)(=O)c1cccc2ccccc12 |  | AUC (Rattus norvegicus [3]): 952 ng·h/mL; half-life [4]: 60 min; clearance (Liver microsomes [5]): 8 mL/min/g; Activity (Cytochrome P450 2D6): 1.2 µM; half-life [6]: 54 min; clearance [7]: 18 mL/min/kg; AUC (Rattus norvegicus [8]): 1731 ng·h/mL; Drug uptake (Brain): 564 ng/mL; Cmax [9]: 564 ng/mL; F (Rattus norvegicus [10]): 95%; clearance (Liver microsomes [11]): 8 mL/min/g; AUC(0-inf) [12]: 587 ng·h/mL; bioavailability [13]: 4%
25 | CCCN(C[C@@H](O)CNS(=O)(=O)c1cccc2ccccc12)C(C)(C)C | 1000 nM | 
26 | CC1CC(C)N(C[C@@H](O)CNS(=O)(=O)c2cccc(Cl)c2Cl)C1 (stereo partly drawn) | 2510 nM | 
27 | CC(C)(C)C1CCCN1C[C@@H](O)CNS(=O)(=O)c1cccc2ccccc12 (single isomer, unassigned; isomer A) | 7940 nM | 
28 | CC1CCCN(C[C@@H](O)CNS(=O)(=O)c2cccc3ccccc23)C1 (stereo partly drawn) | 3980 nM | 
29 | CC(C)C1CCCN1C[C@@H](O)CNS(=O)(=O)c1cccc2ccccc12 (single isomer, unassigned; isomer B) | 200 nM | 
30 | O=S(=O)(NC[C@H](O)CN1CCCCC1)c1cccc2ccccc12 | 3160 nM | 
31 | O=S(=O)(NC[C@H](O)CN1CCCC1C1CCCCC1)c1cccc2ccccc12 (single isomer, unassigned; isomer B) | 6310 nM | 

Source: ChEMBL document CHEMBL1139093, “1,3-diaminopropan-2-ol sulfonamides as potent and selective inhibitors of the glycine transporter type 1” (Bioorg Med Chem Lett, 2007)
